Measurements from PMC5748027, “Computer-aided design of multi-target ligands at A1R, A2AR and PDE10A, key proteins in neurodegenerative diseases” (Journal of Cheminformatics, 2017).

Legend:
[1] = target: T1, A1 human adenosine receptor (A1R) (Homo sapiens, UniProt P30542); experiment: Radioligand binding competition assay, human A1 receptor in transfected CHO cells; conditions: for inhibition at 0.1 µM: 0.1 µM compound, read-out: % displacement at 0.1 μM (A1R); for Ki: Cheng-Prusoff approximation
T1 construct: expressed in transfected cells; host or cells: CHO
T1 sequence (P30542 1-326): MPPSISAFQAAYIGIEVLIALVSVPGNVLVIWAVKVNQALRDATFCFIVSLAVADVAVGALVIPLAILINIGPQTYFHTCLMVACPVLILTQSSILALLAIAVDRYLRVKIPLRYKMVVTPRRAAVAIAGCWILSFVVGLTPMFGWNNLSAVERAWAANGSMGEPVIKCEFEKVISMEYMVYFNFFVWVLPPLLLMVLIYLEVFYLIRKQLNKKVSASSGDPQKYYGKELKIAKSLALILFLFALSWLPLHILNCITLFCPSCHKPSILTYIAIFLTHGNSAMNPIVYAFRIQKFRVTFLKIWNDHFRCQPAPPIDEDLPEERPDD
Description: Pharmacological evaluation was performed in a radioligand binding competition assay, using A1, A2A, A2B, and A3 human receptors expressed in transfected CHO (A1), HeLa (A2A and A3), and HEK-293 (A2B) according to the procedure reported by Bosch et al. [78].

[2] = target: T2, A2A human adenosine receptor (A2AR) (Homo sapiens, UniProt P29274); experiment: Radioligand binding competition assay, human A2A receptor in transfected HeLa cells; conditions: for % displacement at 0.1 μM (A2AR): 0.1 µM compound; for Ki: Cheng-Prusoff approximation
T2 construct: expressed in transfected cells; host or cells: HeLa
T2 sequence (P29274 whole entry): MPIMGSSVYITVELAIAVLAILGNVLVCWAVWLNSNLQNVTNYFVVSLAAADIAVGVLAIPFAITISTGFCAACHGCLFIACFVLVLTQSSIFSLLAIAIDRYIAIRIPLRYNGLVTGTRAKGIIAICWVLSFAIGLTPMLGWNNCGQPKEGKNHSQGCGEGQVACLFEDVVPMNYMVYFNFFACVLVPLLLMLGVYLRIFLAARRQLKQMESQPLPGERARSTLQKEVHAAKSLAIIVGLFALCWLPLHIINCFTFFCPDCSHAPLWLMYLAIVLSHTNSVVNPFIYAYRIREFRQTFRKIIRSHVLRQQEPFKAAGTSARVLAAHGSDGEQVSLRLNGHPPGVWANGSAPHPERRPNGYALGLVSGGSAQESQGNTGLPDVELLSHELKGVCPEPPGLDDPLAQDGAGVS
Description: (§1) Bioactivity testing was performed using A1 and A2A human adenosine receptors expressed in transfected CHO (A1) and HeLa (A2A) cells, as well as AD293 cells that were transiently transfected with human PDE10A. Table 1 includes the list of synthesized 4,6-substituted 2-amino-pyridin-3-carbonitriles, along with their Ki values against A1R, A2AR, and IC50 values against PDE10A.
(§2) Pharmacological evaluation was performed in a radioligand binding competition assay, using A1, A2A, A2B, and A3 human receptors expressed in transfected CHO (A1), HeLa (A2A and A3), and HEK-293 (A2B) according to the procedure reported by Bosch et al..

[3] = target: T3, A2B human receptor (A2BR) (Homo sapiens, UniProt P29275); experiment: Radioligand binding competition assay, human A2B receptor in transfected HEK-293 cells; conditions: 0.1 µM compound; read-out: percentage displacement at 0.1µM (A2BR)
T3 construct: expressed in transfected cells; host or cells: HEK-293
T3 sequence (P29275 1-332): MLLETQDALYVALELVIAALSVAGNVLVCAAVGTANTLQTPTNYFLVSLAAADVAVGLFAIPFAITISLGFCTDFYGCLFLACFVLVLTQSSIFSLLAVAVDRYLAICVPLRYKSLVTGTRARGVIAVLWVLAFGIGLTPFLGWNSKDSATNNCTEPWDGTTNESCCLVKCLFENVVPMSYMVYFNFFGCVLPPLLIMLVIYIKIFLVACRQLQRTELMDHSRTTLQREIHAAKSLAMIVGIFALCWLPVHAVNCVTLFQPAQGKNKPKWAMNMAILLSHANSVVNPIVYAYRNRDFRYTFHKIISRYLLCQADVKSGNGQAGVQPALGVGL
Description: as §2

A3 human receptor (A3R) = target: T4, A3 human receptor (A3R) (Homo sapiens, UniProt P0DMS8); experiment: Radioligand binding competition assay, human A3 receptor in transfected HeLa cells; conditions: 0.1 µM compound; read-out: percentage displacement at 0.1µM (A3R)
T4 construct: expressed in transfected cells; host or cells: HeLa
T4 sequence (P0DMS8 1-318): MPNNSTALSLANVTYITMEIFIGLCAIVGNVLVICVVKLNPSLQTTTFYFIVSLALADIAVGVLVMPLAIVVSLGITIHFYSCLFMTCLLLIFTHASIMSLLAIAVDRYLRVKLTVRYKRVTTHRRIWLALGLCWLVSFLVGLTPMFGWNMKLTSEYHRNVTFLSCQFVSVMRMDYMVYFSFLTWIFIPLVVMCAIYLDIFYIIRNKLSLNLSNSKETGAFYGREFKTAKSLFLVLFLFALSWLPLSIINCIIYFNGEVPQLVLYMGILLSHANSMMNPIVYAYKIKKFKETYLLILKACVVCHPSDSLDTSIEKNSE
Description: as §2

human PDE10A = target: T5, human PDE10A (Homo sapiens, UniProt Q9Y233); experiment: Phosphodiesterase activity, AD293 cells transiently transfected with human PDE10A; assay type: biochemical; conditions: for IC50: mean of 3 experiments in duplicate; for inhibition at 10 µM: read-out: % inhibition at 10 μM (PDE10A), 10 μM compound
T5 construct: expressed in transfected cells; host or cells: AD293 (transient transfection)
T5 sequence (Q9Y233 267-1055 limits assumed): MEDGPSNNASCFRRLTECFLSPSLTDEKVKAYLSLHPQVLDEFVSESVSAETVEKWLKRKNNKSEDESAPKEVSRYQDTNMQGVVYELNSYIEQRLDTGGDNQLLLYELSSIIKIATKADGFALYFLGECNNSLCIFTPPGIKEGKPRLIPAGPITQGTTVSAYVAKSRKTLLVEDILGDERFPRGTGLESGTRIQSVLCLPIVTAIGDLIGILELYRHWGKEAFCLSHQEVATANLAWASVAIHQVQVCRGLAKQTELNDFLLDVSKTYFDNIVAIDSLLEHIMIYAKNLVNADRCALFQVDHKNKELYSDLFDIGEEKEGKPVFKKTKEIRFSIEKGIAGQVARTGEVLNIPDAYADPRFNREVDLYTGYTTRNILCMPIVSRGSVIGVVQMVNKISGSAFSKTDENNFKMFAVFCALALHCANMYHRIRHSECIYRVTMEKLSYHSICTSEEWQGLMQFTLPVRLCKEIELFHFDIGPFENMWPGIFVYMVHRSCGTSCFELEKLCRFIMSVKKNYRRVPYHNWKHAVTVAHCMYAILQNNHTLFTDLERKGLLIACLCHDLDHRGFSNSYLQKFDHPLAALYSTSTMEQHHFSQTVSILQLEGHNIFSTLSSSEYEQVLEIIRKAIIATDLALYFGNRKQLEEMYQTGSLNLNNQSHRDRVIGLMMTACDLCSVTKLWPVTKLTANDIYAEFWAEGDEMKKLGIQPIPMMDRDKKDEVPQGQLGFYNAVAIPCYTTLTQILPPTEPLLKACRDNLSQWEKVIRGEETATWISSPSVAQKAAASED
Description: as §1
(§3) The activity measurements against the phosphodiesterases PDE7A, PDE7B, PDE9A and PDE10A were performed using AD293 cells that were transiently and separately transfected with human PDE7A, PDE7B, PDE9A, and PDE10A following the procedure described by Shipe et al..

human PDE7A = target: T6, human PDE7A (Homo sapiens, UniProt Q13946); experiment: Phosphodiesterase activity, AD293 cells transiently transfected with human PDE7A; assay type: biochemical; conditions: for inhibition at 10 µM: 10 µM compound, read-out: Percentage inhibition at 10µM (PDE7A)
T6 construct: expressed in transfected cells; host or cells: AD293 (transient transfection)
T6 sequence (Q13946 whole entry): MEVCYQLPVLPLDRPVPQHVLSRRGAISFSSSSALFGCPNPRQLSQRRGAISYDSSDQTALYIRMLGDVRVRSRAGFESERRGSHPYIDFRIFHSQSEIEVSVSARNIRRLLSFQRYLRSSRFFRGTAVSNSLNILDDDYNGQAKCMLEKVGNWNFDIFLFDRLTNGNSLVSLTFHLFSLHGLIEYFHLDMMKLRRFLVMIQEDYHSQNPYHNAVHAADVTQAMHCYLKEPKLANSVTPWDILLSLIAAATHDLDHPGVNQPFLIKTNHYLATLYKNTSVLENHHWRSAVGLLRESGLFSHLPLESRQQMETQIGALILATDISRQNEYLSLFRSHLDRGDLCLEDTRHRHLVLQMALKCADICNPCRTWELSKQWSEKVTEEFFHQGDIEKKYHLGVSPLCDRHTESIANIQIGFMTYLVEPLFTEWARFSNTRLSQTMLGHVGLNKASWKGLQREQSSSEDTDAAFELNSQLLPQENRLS
Description: as §3

human PDE7B = target: T7, human PDE7B (Homo sapiens, UniProt Q9NP56); experiment: Phosphodiesterase activity, AD293 cells transiently transfected with human PDE7B; assay type: biochemical; conditions: for inhibition at 10 µM: 10 µM compound, read-out: Percentage inhibition at 10µM (PDE7B)
T7 construct: expressed in transfected cells; host or cells: AD293 (transient transfection)
T7 sequence (Q9NP56 whole entry): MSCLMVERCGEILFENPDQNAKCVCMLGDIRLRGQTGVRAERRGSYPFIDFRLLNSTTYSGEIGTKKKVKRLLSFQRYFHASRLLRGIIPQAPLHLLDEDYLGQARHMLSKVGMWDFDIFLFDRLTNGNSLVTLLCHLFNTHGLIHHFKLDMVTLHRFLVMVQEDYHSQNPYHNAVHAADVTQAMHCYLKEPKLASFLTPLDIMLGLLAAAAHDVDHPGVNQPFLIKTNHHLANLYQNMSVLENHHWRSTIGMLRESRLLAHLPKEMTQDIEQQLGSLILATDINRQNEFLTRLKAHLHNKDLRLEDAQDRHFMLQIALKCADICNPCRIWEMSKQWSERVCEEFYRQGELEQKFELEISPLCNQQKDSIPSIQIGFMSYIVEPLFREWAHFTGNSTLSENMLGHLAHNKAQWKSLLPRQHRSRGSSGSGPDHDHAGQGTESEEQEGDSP
Description: as §3

human PDE9A = target: T8, human PDE9A (Homo sapiens, UniProt O76083); experiment: Phosphodiesterase activity, AD293 cells transiently transfected with human PDE9A; assay type: biochemical; conditions: 10 µM compound; read-out: Percentage inhibition at 10µM (PDE9A)
T8 construct: expressed in transfected cells; host or cells: AD293 (transient transfection)
T8 sequence (O76083 whole entry): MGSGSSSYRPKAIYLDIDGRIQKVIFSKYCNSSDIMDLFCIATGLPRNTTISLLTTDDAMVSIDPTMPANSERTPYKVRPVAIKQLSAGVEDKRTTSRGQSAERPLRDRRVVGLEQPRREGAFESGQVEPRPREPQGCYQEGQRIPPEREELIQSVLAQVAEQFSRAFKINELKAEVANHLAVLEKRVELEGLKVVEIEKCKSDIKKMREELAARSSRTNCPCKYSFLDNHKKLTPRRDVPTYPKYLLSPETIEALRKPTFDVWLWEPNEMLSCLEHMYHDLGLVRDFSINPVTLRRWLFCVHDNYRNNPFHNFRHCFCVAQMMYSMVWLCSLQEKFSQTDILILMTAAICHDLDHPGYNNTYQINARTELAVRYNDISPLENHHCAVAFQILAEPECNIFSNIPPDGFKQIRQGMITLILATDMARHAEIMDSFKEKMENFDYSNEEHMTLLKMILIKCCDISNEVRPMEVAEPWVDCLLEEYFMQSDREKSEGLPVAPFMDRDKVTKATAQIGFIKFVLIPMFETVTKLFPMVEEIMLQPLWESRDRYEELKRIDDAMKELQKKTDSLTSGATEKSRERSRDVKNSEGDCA
Description: as §3

| Compound | inhibition at 0.1 µM [1] | % displacement at 0.1 μM (A2AR) [2] | inhibition at 0.1 µM [3] | inhibition at 0.1 µM (A3 human receptor (A3R)) | IC50 (human PDE10A) | inhibition at 10 µM (human PDE7A) | inhibition at 10 µM (human PDE7B) | inhibition at 10 µM (human PDE9A) | Ki [2] | IC50 (human PDE7A) | melting point | Ki [1] | inhibition at 10 µM (human PDE10A) | IC50 (human PDE7B) |
| --- | --- | --- | --- | --- | --- | --- | --- | --- | --- | --- | --- | --- | --- | --- |
| COc1ccc(-c2cc(-c3ccccc3)nc(N)c2C#N)c(OC)c1 [Compound 6, 2-amino-4-(2,4-dimethoxyphenyl)-6-phenylpyridine-3-carbonitrile] | 12% | 1% | 1% | 6% | 5.7 ± 0.3 µM | 51% | 27% | 1% |  |  |  |  |  |  |
| COc1ccccc1-c1cc(-c2ccco2)nc(N)c1C#N [Compound 21, 2-amino-6-(furan-2-yl)-4-(2-methoxyphenyl)pyridine-3-carbonitrile] | 38% |  | 2% | 23% | 10 ± 0.6 µM |  | 30% | 17% | 0.095 ± 0.004 µM | 15.1 µM | 187 to 188 °C |  |  |  |
| N#Cc1c(-c2ccccc2)cc(-c2nccs2)nc1N [Compound 3, 2-amino-4-phenyl-6-(1,3-thiazol-2-yl)pyridine-3-carbonitrile] | 12% | 8% | 3% | 6% | 2 ± 0.2 µM | 24% | 36% | 5% |  |  | 154 to 156 °C |  |  |  |
| N#Cc1c(C2CCCCC2)cc(-c2ccsc2)nc1N [Compound 12, 2-amino-4-cyclohexyl-6-(thiophen-3-yl)pyridine-3-carbonitrile] | 44% | 60% | 2% | 14% | 0.9 ± 0.2 µM | 29% | 60% | 3% |  |  | 145 to 146 °C |  |  |  |
| N#Cc1c(-c2ccc3c(c2)OCO3)cc(-c2ccccc2)nc1N [Compound 7, 2-amino-4-(2H-1,3-benzodioxol-5-yl)-6-phenylpyridine-3-carbonitrile] |  | 5% | 1% | 2% |  | 22% | 8% | 19% |  |  | 220 to 221 °C | 0.025 ± 0.002 µM | 17% |  |
| COc1ccccc1-c1cc(-c2ccc(O)cc2)nc(N)c1C#N [Compound 22, 2-amino-6-(4-hydroxyphenyl)-4-(2-methoxyphenyl)pyridine-3-carbonitrile] | 8% | 1% | 1% | 2% | 5.6 ± 0.5 µM | 63% | 16% | 9% |  |  |  |  |  |  |
| N#Cc1c(-c2ccc(O)cc2)cc(-c2ccc(O)cc2)nc1N [Compound 24, 2-amino-4,6-bis(4-hydroxyphenyl)pyridine-3-carbo-nitrile] | 19% | 7% | 1% | 1% | 3.1 ± 0.4 µM | 47% | 38% | 7% |  |  | 299 to 300 °C |  |  |  |
| COc1ccccc1-c1cc(-c2ccccc2)nc(N)c1C#N [Compound 5, 2-amino-4-(2-methoxyphenyl)-6-phenylpyridine-3-carbonitrile] | 53% |  | 5% | 26% |  | 24% | 30% | 3% | 0.543 ± 0.013 µM |  |  |  | 28% |  |
| COc1ccc(-c2cc(-c3ccccc3C)nc(N)c2C#N)cc1 [Compound 15, 2-amino-4-(4-methoxyphenyl)-6-(2-methylphenyl)pyridine-3-carbonitrile] | 6% | 32% | 4% | 17% | 1.5 ± 0.2 µM | 57% | 55% | 16% |  |  |  |  |  |  |
| N#Cc1c(-c2ccccc2)cc(-c2ccc(O)cc2)nc1N [Compound 2, 2-amino-6-(4-hydroxyphenyl)-4-phenylpyridine-3-carbonitrile] |  | 38% | 2% | 2% |  | 47% | 39% | 1% |  |  |  | 0.142 ± 0.007 µM | 52% |  |
| COc1ccc(-c2cc(-c3ccccc3F)nc(N)c2C#N)cc1 [Compound 14, 2-amino-6-(2-fluorophenyl)-4-(4-methoxyphenyl)pyridine-3-carbonitrile] |  | 30% | 1% | 27% |  | 22% | 20% | 7% |  |  |  | 0.108 ± 0.006 µM | 10% |  |
| COc1ccccc1-c1cc(-c2ccccc2C)nc(N)c1C#N [Compound 20, 2-amino-4-(2-methoxyphenyl)-6-(2-methylphenyl)pyridine-3-carbonitrile] | 12% | 50% | 3% | 6% | 6.4 ± 0.4 µM | 31% | 23% | 12% |  |  |  |  |  |  |
| COc1ccc(-c2cc(-c3ccco3)nc(N)c2C#N)cc1 [Compound 16, 2-amino-6-(furan-2-yl)-4-(4-methoxyphenyl)pyridine-3-carbonitrile] |  |  | 33% | 21% | 3.2 ± 0.4 µM |  | 30% | 2% |  | 3.4 µM | 205 to 207 °C |  |  |  |
| N#Cc1c(-c2ccco2)cc(-c2ccsc2)nc1N [Compound 25, 2-amino-4-(furan-2-yl)-6-(thiophen-3-yl)pyridine-3-carbonitrile] | 15% |  | 5% | 2% | 5.1 ± 0.4 µM | 48% |  | 14% | 0.055 ± 0.002 µM |  |  |  |  | 4.7 µM |
| COc1ccc(-c2cc(-c3ccc(O)cc3)nc(N)c2C#N)cc1 [Compound 17, 2-amino-6-(4-hydroxyphenyl)-4-(4-methoxyphenyl)pyridine-3-carbonitrile] | 46% | 29% | 1% | 8% |  |  | 44% | 7% |  | 3.5 µM |  |  | 65% |  |
| N#Cc1c(-c2ccccc2)cc(-c2ccc(F)cc2)nc1N [Compound 1, 2-amino-6-(4-fluorophenyl)-4-phenylpyridine-3-carbonitrile] |  | 32% | 2% | 27% |  | 9% | 28% | 1% |  |  |  | 0.394 ± 0.012 µM | 22% |  |
